Earlier results, collected in patent US7601870B2, “Substituted aniline derivatives” (priority 2004, dated 2009).

Columns and labels:
[1] = test system: electrically induced seizures, seizures induced chemically by pentylenetetrazole, picrotoxin and NMDA, DBA/2 mouse; conditions: oral and intraperitoneal administration in rats and mice
[2] = test system: K(+) current in neuronal cells
hippocampal kindling = conditions: rat
[3] = test system: amygdala kindling model of complex partial seizures; conditions: in vivo
[4] = test system: animal models of neuropathic pain; conditions: in vivo
[5] = test system: kainic acid-induced status epilepticus; conditions: rat
[6] = test system: animal models of anxiety-like behaviour; conditions: in vivo
[7] = test system: seizures in epileptic patients; conditions: clinical trials
[8] = test system: animal models of ethanol withdrawal syndrome; conditions: in vivo

SMILES	anticonvulsant activity [1]	activation of K(+) current [2]	progression of hippocampal kindling (hippocampal kindling)	activity in amygdala kindling model [3]	effect in neuropathic pain models [4]	limbic neurodegeneration and markers of apoptosis [5]	activity in anxiety-like behaviour models [6]	incidence of seizures [7]	effect in ethanol withdrawal syndrome models [8]
CCOC(=O)Nc1ccc(NCc2ccc(F)cc2)cc1N [Retigabine, N-(2-amino-4-(4-fluorobenzylamino)-phenyl) carbamic acid ethyl ester]	active	activate a K(+) current	delay the progression of hippocampal kindling	active	beneficial	prevent limbic neurodegeneration and the expression of markers of apoptosis	active	effectiveness in reducing the incidence of seizures	–
NCC1(CC(=O)O)CCCCC1 [gabapentin]	–	–	–	–	–	–	–	–	very effective
